Results reported in US20250009627A1, “THERAPEUTIC AND NON-THERAPEUTIC USES OF A PERSONAL CLEANSING COMPOSITION AND METHODS OF TREATMENT” (The Procter & Gamble Company, priority 2023, published 2025).

Experiments:
[1] = system: Escherichia coli ATCC25922; experiment: In vitro Minimum Inhibitory Concentration (MIC) testing; type: cell-based; conditions: for MIC: Escherichia coli ATCC25922, pH of the assay 7.2, read-out: Minimum Inhibition Concentration MIC
Description: (§1) The in vitro Minimum Inhibitory Concentration (MIC) Assay is a technique for determining the lowest concentration of a particular compound needed to prevent growth of microorganism. Different microorganisms were used to evaluate bacterial inhibition benefits for sulfate surfactants (Table 1) [table] Microorganisms are cultured and maintained in different culture medium. Each respective microorganism stock solution is diluted to 10^5 to 10^6 CFU/mL in a respective growth medium. 180 μl broth with the respective target microorganism is allocated into 96 well plates. Sodium oleyl sulfate prepared from two different synthesis batches (Ex. 1A and Ex. 1B), sodium octyl sulfate, sodium decyl sulfate, sodium lauryl sulfate were mixed respectively with in Deionized (DI) water. Octadecyl sulfate sodium was mixed in Dimethyl sulfoxide (DMSO). Two folds serial dilution are applied to each respective active by mixing 100 μl active stock solution (from 1 wt. %) plus 100 μl sterilized DI water or DMSO in 96 well plates (Nunc™ MicroWell™ 96-Well, CAT. No. 167008). For each assay, 0.001-1 wt. % treatment solutions are prepared for each individual active. Micropipettes are used to transfer 20 μl of actives at different concentration into each well with 180 μl broth with the respective target microorganisms. The 96 well plates with test microorganisms and test actives are incubated at 37° C. • a) E. coli are incubated for overnight 16 hours to 24 hour. • b) Corynebacterium minutissimum is incubated for two days. • c) Cutibacterium acnes is incubated for two days under anaerobic conditions. After incubation, microorganism growth is determined in presence of test actives by visual inspection or spectrophotometer by OD600 (absorbance at 600 nm using Tecan M200 Infinite Pro Microplate Reader) reading in comparison with positive control (broth with individual microorganism) and negative control (Broth only). MIC values are presented as parts per million (ppm) for different actives.

[2] = system: Staphylococcus aureus ATCC6538; experiment: as above; type: cell-based; conditions: for MIC: read-out: Minimum Inhibition Concentration MIC
Description: as §1

[3] = system: Corynebacterium minutissimum ATCC 23348; experiment: as above; type: cell-based; conditions: for MIC: ATCC23348, read-out: Minimum Inhibition Concentration MIC
Description: as §1, with “plates. For instance, Corynebacterium minutissimum ATCC 23348 is cultured on tryptic soy agar (TSA) (Oxoid CM0131) over 24 hours. The single colonies are then transferred into 20 mL Tryptone Soy Broth (Oxoid CM0129B—TSB) and cultured overnight at 200 rpm/min, 37° C. Bacterial cell in broth will be diluted to 10^5 to 10^6 CFU/mL in TSB. 180 μL of this bacterium-MHB mix is added to a 96 well flat-bottomed plate (Nunc™ MicroWell™ 96-Well, CAT. No. 167008).” for “plates.”

Cutibacterium acne SK137 = experiment: as above; type: cell-based, Cutibacterium acnes; conditions: for MIC: Cutibacterium, SK137, Cutibacterium acne SK137, anaerobic, read-out: Minimum Inhibition Concentration MIC; for bacterial inhibition of Cutibacterium acne (in words): two strains (SK137, 2044 NIA)
Description: as §1

[4] = system: Cutibacterium acne 2044 NIA (skin isolate); experiment: as above; type: cell-based, Cutibacterium acnes; conditions: for MIC: read-out: Minimum Inhibition Concentration MIC
Description: The in vitro Minimum Inhibitory Concentration (MIC) Assay is a technique for determining the lowest concentration of a particular compound needed to prevent growth of microorganism. Different microorganisms were used to evaluate bacterial inhibition benefits for sulfate surfactants (Table 1)
Microorganisms are cultured and maintained in different culture medium. Each respective microorganism stock solution is diluted to 10^5 to 10^6 CFU/mL in a respective growth medium. 180 μl broth with the respective target microorganism is allocated into 96 well plates.
Sodium oleyl sulfate prepared from two different synthesis batches (Ex. 1A and Ex. 1B), sodium octyl sulfate, sodium decyl sulfate, sodium lauryl sulfate were mixed respectively with in Deionized (DI) water. Octadecyl sulfate sodium was mixed in Dimethyl sulfoxide (DMSO).
Two folds serial dilution are applied to each respective active by mixing 100 μl active stock solution (from 1 wt. %) plus 100 μl sterilized DI water or DMSO in 96 well plates (Nunc™ MicroWell™ 96-Well, CAT. No. 167008). For each assay, 0.001-1 wt. % treatment solutions are prepared for each individual active.
Micropipettes are used to transfer 20 μl of actives at different concentration into each well with 180 μl broth with the respective target microorganisms.
The 96 well plates with test microorganisms and test actives are incubated at 37° C. • a) E. coli are incubated for overnight 16 hours to 24 hour. • b) Corynebacterium minutissimum is incubated for two days. • c) Cutibacterium acnes is incubated for two days under anaerobic conditions.
After incubation, microorganism growth is determined in presence of test actives by visual inspection or spectrophotometer by OD600 (absorbance at 600 nm using Tecan M200 Infinite Pro Microplate Reader) reading in comparison with positive control (broth with individual microorganism) and negative control (Broth only). MIC values are presented as parts per million (ppm) for different actives.
C. acne SK137 and C. acne 2044NIA (P&G skin isolate) are from Type IA-2 Clade by whole genome sequencing, which is reported to be associated with skin acne conditions.

E. coli ATCC25922 = experiment: Kill Rate Test in liquid (suspension time-kill testing); type: cell-based, Escherichia coli
Description: The suspension time-kill test is a method to directly inoculate a liquid test substance with a high concentration of test microorganisms and then determine the percentage of killed over time, normally represented as log CFU reduction. The objective is to measure the biocidal potential of a liquid antimicrobial active or formulation.
E. coli ATCC25922 is streaked on Tryptic Soy Agar (TSA) Plates and cultured overnight. Pick up one colony of E. coli ATCC25922 and subculture bacterial cell in Tryptic Soy Broth (TSB) @ 200 rpm/min, 37° C. for 12-16 hours. After culturing, 1 mL bacterial cells in broth are pipetted into 2 mL tubes. Samples are centrifuged for 2 mins at 13000 rpm/min. Cell supernatant are discarded, and bacterial cells are resuspended in 1 mL Saline @ 10^8 to 10^9 CFU/mL. 1 mL liquid antimicrobial active to be tested under different concentrations is prepared: 20 mM acetate buffers are used to maintain the test solutions at a pH between 4.0 and 5.7. 10 mM phosphate buffer is used to maintain the test solution at a pH around 7.2. 20 mM Tris-HCl buffers are used to maintain the test solutions at a pH between 8.0 and 9.0. 1 mL saline (NaCl 0.9 wt. %) is used to as negative control in the study. 50 μl of 10^8 to 10^9 CFU/mL bacterial cells are added into each treatment and saline control. Samples were thoroughly mixed by vertexing 5 seconds. After incubating 30 minutes, 50 μl liquid from each treatment sample and saline control are pipetted out into for Total Viable Count Vial (NEOGEN). All measurements are done in duplicates. The Detection Time (DT) for Total Viable Count Vial is measured by Soleris® Next Generation (NEOGEN) system. DT values are averaged for each treatment and control for further calculation. DT time for each sample is converted to Log (viable cell number) by using algorithm generated for E. coli ATCC25922:
Biocidal potential of different actives at different concentrations and at different pHs in a liquid solution is measured by: […]

[5] = Description: The term “Biodegradable Test” as used herein means the test as described in the Test Method Section herein in which the test material is suspended in a phosphate buffered media containing an activated sludge inoculum and the formation of carbon dioxide measured via a closed-circuit respirometer. The test material is the sole carbon and energy source and under aerobic conditions microorganisms metabolize organic substances producing CO2 as the ultimate product. The biodegradability of the salt of the alkenyl sulfate ester, preferably sodium oleyl sulfate can be tested according to the following method. The Biodegradability Test Method is based on the Organization for Economic Co-operation and Development (OECD) 301B CO2 evolution biodegradation test method that screens chemicals for ready biodegradability in an aerobic aqueous medium. In this test, the test substance is suspended in a phosphate buffered nutrient salts media containing an activated sludge inoculum and the formation of carbon dioxide is measured via a closed-circuit respirometer. […] The test system is dosed with a known quantity of carbon and biodegradation is calculated as the percent of theoretical CO2 formation. […] Ready biodegradability is a regulator definition that is used to classify materials that meet the pass criteria as described in the OECD 301B guideline. […]
[6] = Corynebacterium minutissimum ATCC 23348

MIC [1] [µg/mL] | MIC ([2]; Staphylococcus aureus ATCC6538) [µg/mL] | MIC [3, 6] [µg/mL] | MIC (Cutibacterium acne SK137) [µg/mL] | MIC [4] [µg/mL] | Structure (SMILES) | inhibition of S. aureus (in words) [2] | other results
> 1000 | > 1000 | > 500 | > 500 | > 500 | CCCCCCCCCCOS(=O)(=O)[O-].[Na+] [sodium decyl sulfate] | No inhibition | 
> 1000 | > 500 | > 500 | > 500 | > 500 | CCCCCCCCCCCCCCCCCCOS(=O)(=O)[O-].[Na+] [octadecyl sulfate sodium salt] | ineffective | bacterial inhibition of Cutibacterium acne (in words) (Cutibacterium acne SK137): no effect
> 1000 | 3.9 | 3.9 | 3.9 | 7.8 | CCCCCCCC/C=C\CCCCCCCCOS(=O)(=O)[O-].[Na+] [Ex. 1A, sodium oleyl sulfate] |  | 
 |  |  |  |  | CCCCCCCC/C=C\CCCCCCCCOS(=O)(=O)[O-].[Na+] [sodium oleyl sulfate] |  | effect against gram-negative E. coli (in words) ([1]; pH of the assay of 7.2): ineffective; bacterial inhibition of Corynebacterium minutissimum (in words) [3]: strong bacterial inhibition effects; bacterial inhibition of Cutibacterium acne (in words) (Cutibacterium acne SK137): strong bacterial inhibition effects; bactericidal activity against E. coli in solution (in words) (E. coli ATCC25922; pH up to or equal to 4): some bactericidal activity; ready biodegradability [5]: meeting both requirements for ready biodegradability
> 1000 | 125 | 125 | 31.2 | 62.5 | CCCCCCCCCCCCOS(=O)(=O)[O-].[Na+] [sodium lauryl sulfate] | less potent than sodium oleyl sulfate | 
> 1000 | > 1000 | > 500 | > 500 | > 500 | CCCCCCCCOS(=O)(=O)[O-].[Na+] [sodium octyl sulfate] | No inhibition | 
 |  |  |  |  | CCCCCCCC/C=C\CCCCCCCCOS(=O)(=O)[O-].[Na+] [Ex. 1B, sodium oleyl sulfate] |  | Minimum Inhibition Concentration MIC ([2]; Staphylococcus aureus ATCC6538): 3.9 ppm; Minimum Inhibition Concentration MIC [3, 6]: 3.9 ppm; Minimum Inhibition Concentration MIC (Cutibacterium acne SK137; Cutibacterium acne SK137, anaerobic, sulfate): 7.8 ppm; Minimum Inhibition Concentration MIC [4]: 7.8 ppm; bactericidal activity against E. coli ATCC25922 (log CFU reduction) (E. coli ATCC25922; 12.5 ppm, test pH 4, 30 minutes): 4.3; bactericidal activity against E. coli ATCC25922 (log CFU reduction) (E. coli ATCC25922; 12.5 ppm, test pH 5.1, 30 minutes): 0; bactericidal activity against E. coli ATCC25922 (log CFU reduction) (E. coli ATCC25922; 50 ppm, test pH 4, 30 minutes): 6.6; bactericidal activity against E. coli ATCC25922 (log CFU reduction) (E. coli ATCC25922; 50 ppm, test pH 5.1, 30 minutes): <0.3; bactericidal activity against E. coli ATCC25922 (log CFU reduction) (E. coli ATCC25922; 200 ppm, test pH 4, 30 minutes): 6.6; bactericidal activity against E. coli ATCC25922 (log CFU reduction) (E. coli ATCC25922; 200 ppm, test pH 5.1, 30 minutes): <0.3
